Data reported in PMC10439028, “SGLT5 is the renal transporter for 1,5-anhydroglucitol, a major player in two rare forms of neutropenia” (Cellular and Molecular Life Sciences: CMLS, 2023).

Biological target: T1, mouse SGLT4 (Mus musculus, UniProt Q8VDT1)
T1 construct: expressed in transfected cells; host or cells: HEK293T
T1 sequence (Q8VDT1 1-685): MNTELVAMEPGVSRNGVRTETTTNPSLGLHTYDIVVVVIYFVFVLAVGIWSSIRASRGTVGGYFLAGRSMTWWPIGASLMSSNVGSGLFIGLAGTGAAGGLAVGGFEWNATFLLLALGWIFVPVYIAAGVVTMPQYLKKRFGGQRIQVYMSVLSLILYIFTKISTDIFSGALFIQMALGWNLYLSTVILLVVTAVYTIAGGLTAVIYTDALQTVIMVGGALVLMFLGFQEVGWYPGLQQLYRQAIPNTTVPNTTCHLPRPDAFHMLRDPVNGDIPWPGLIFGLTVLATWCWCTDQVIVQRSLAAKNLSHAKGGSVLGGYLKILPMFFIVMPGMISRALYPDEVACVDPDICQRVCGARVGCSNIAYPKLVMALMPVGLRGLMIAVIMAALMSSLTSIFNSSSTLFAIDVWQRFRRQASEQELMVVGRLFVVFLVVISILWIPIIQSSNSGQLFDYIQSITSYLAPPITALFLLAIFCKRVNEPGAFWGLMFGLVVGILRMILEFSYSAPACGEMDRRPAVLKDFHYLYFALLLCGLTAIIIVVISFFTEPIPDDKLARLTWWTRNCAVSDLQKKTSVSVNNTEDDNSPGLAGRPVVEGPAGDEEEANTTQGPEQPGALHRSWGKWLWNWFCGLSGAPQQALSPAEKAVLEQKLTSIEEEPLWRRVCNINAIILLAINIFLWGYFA
Assay: Radioactive uptake assay (saturation kinetics) in HEK293T cells expressing mouse SGLT4
Format: cell-based
Protocol: For a typical transporter experiment we proceeded as follows. […] To minimize cell loss during the various washing steps in the radioactive uptake experiments, the wells where the cells were seeded were previously coated with poly- D-lysine, which improved their adhesion to the plastic surface of the wells. For this, each well of the 24-well plates was treated with 200 µl of a 0.01% poly-L-lysine solution for 10 min, washed 3 times with 1 ml of sterilized water and left to dry for 2 h. Only then could the 24-well plates be seeded with the appropriate cell lines and cultured overnight at 37 °C in 5% CO2.
On day two, the radioactive uptake assay could be performed. The cell culture media was removed by aspiration and cells were incubated for 20 min at 37 °C and 5% CO2 with a basal medium (10 mM HEPES, pH 7.4, 1 mM CaCl2, 1 mM MgCl2, 2 mM KCl) containing 140 mM choline chloride to deplete intracellular […] ions. This was subsequently replaced with the uptake medium (basal medium + 140 mM NaCl, 25 μM cytochalasin B, 1 mg/ml BSA) containing either radioactive U-[^14C]-mannose (15,000 cpm/well) or 2-[^3H]-1,5-AG (30,000 cpm/well) and respectively, non-radioactive mannose or 1,5-AG, at the required concentration in the experiment. Importantly, when measuring the transport of mannose, the uptake media also contained 0.5 mM glucose. This resulted from the need to reduce the background transport of mannose in control HEK293T cells in order to optimize the transport assay for this sugar in our model cell lines. Consequently, after testing various inhibitors (Supplementary Fig. 1), 0.5 mM glucose + 25 µM cytochalasin B appeared as the best combination to decrease efficiently the endogenous transport of mannose in control cells without affecting the transport of mannose in model cell lines overexpressing SGLT4 and SGLT5. […]
Once the uptake medium was added to the cells, the plates were incubated at 37 °C in 5% CO2 during the required time. […] In each experiment, the transport activities were calculated after subtracting a “blank” value, corresponding to the radioactivity in the appropriate control cells (HEK293T cells that were stably or transiently transfected with one of the parent plasmids pEF6/MycHisA, pEF6HisB, pUB82 or pUB83 with no inserted cDNA) that were analyzed in parallel. […]
Supplementary Fig. 4: Transport activities for 1,5-anhydroglucitol and mannose of recombinant mouse SGLT4 and SGLT5 isoforms measured in HEK293T cells.
Transport was measured in 24 well plates with 0.6x10^6 cells during 30 mins at 37°C in 5% CO2 in the presence of the indicated concentrations of 2-[1H+3H]-1,5-AG for both mSGLT4 (A) and mSGLT5 (B) and U-[12C+14C]-mannose (C) for mSGLT4. […]

OC[C@H]1OC[C@H](O)[C@@H](O)[C@@H]1O [1,5-AG, 1,5-anhydroglucitol]
mSGLT4 Vmax (30 min, Supplementary Fig. 4): 152 pmol/min/100 000 cells
Km (30 min, Supplementary Fig. 4, read-out: mSGLT4 Km): > 5 mM

OC[C@H]1OC(O)[C@@H](O)[C@@H](O)[C@@H]1O (stereo partly shown) [Mannose, mannose]
mSGLT4 Vmax (30 min, Supplementary Fig. 4): 29 pmol/min/100 000 cells
Km of mouse SGLT4 lower for mannose than for 1,5-AG (mannose versus 1,5-AG): 25 fold
